From publication PMC12833730, “Discovery of a First‐in‐Class Covalent Allosteric SHP1 Inhibitor with Immunotherapeutic Activity” (Angewandte Chemie (International Ed. in English), 2025)
“Also recorded” adds a separate entry of the source.

Assays:
Format in all cases: cell-based
[1] = test system: IL-2 in Jurkat T cells; assay: IL-2 mRNA / production; settings: dose response
Procedure: (§1) Supernatants from lysed cells were reduced, treated with iodoacetamide to cap thiol residues, and digested by trypsin for bottom‐up proteomics analysis. […] LCK is the direct substrate of SHP1 and ERK1/2, and PLCγ is the downstream effector protein of LCK‐mediated TCR signaling. […] Statistical analyses were performed with Graphpad Prism software 10.4.2 through the one‐way ANOVA test using Turkey post‐hoc comparison. ****p < 0.0001 was considered significant.
To further confirm M029 cellular target engagement, we investigated the effect of M029 on T cell function. SHP1 plays a negative role in T cells, and deletion of SHP1 in T cells lowers the activation threshold and enhances antitumor immunity.^[ [30], [31], [32], [33] ^] Mechanistically, SHP1 attenuates T cell receptor (TCR) signaling via dephosphorylation of the lymphocyte‐specific protein tyrosine kinase LCK.^[ [31], [84], [85], [86] ^] T cell activation leads to increased expression and secretion of interleukin 2 (IL‐2)^[ [87] ^] while the removal of SHP1 in T cells enhances IL‐2 production, cell proliferation, and cytolysis capacity.^[ [30], [32] ^] Accordingly, we sought to assess the impact of targeting SHP1 with M029 on TCR‐LCK signaling and T cell activation. […] M029 also dose‐dependently promoted IL‐2 production (Figure 4c). […] These findings corroborate that the observed increase in LCK phosphorylation and its downstream signaling indeed resulted from SHP1 inhibition by M029.

[2] = test system: HEK293; assay: CCK8 cytotoxicity; settings: up to 50 µM, 24 hours
Procedure: (§2) Figure S3. Cancerous cells (MC38, EO771, and B16-F10), non-cancerous cells (HEK293), and immune cells (Jurkat and Raw264.7) were treated with M029 at different doses for 24 hours, and the cell viability was determined by the CCK8 experiments using DMSO-treated cells as a control. […] Results were analyzed using GraphPad Prism 10.4.2. The figure is plotted as average ± standard error of the mean (SEM).
(§3) Cytotoxicity: HEK293, MC38, EO771, RAW264.7 cells in DMEM media [supplemented with 10% (v/v) fetal bovine serum and penicillin (100 units/ml)/streptomycin (100 μg/ml)] and Jurkat T cells in RPMI 1640 media [supplemented with 10% (v/v) fetal bovine serum and penicillin (50 units/ml)/streptomycin (50 μg/ml)] were dispensed in clear flat-bottom 96-well plates at the density of 5,000 cells per well and culture for 16 hours under 37 °C with 5% CO2. M029 of different concentrations or DMSO was added to each well, followed by additional incubation for 24 hours. All wells were then treated with 5 µL of CCK8 reagent (Abcam, #ab228554) followed by 4 hours of incubation. OD460 of the reaction mixture was detected using a Spectra MAX340 microplate spectrophotometer (Molecular Devices) and was used to determine the percent growth inhibition of M029 on each cell line. Data were fitted using Prism GraphPad 10.1.1.

[3] = test system: Jurkat T cells; assay: CCK8 cytotoxicity; settings: up to 50 µM, 24 hours
Procedure: as §2, §3

[4] = test system: Raw264.7 cells; assay: CCK8 cytotoxicity; settings: up to 50 µM, 24 hours
Procedure: as §2, §3

[5] = test system: B16-F10; assay: CCK8 cytotoxicity; settings: up to 50 µM, 24 hours
Procedure: as §2, §3

[6] = test system: MC38; assay: CCK8 cytotoxicity; settings: up to 50 µM, 24 hours
Procedure: as §2, §3

[7] = test system: EO771; assay: CCK8 cytotoxicity; settings: up to 50 µM, 24 hours
Procedure: as §2, §3

[8] = test system: SHP1 KO Jurkat T cells; assay: TCR-LCK signaling in SHP1 KO cells
Procedure: as §1
To further confirm M029 cellular target engagement, we investigated the effect of M029 on T cell function. SHP1 plays a negative role in T cells, and deletion of SHP1 in T cells lowers the activation threshold and enhances antitumor immunity.^[ [30], [31], [32], [33] ^] Mechanistically, SHP1 attenuates T cell receptor (TCR) signaling via dephosphorylation of the lymphocyte‐specific protein tyrosine kinase LCK.^[ [31], [84], [85], [86] ^] T cell activation leads to increased expression and secretion of interleukin 2 (IL‐2)^[ [87] ^] while the removal of SHP1 in T cells enhances IL‐2 production, cell proliferation, and cytolysis capacity.^[ [30], [32] ^] Accordingly, we sought to assess the impact of targeting SHP1 with M029 on TCR‐LCK signaling and T cell activation. […] M029 also dose‐dependently promoted IL‐2 production (Figure 4c). […]

N#Cc1ccsc1NS(=O)(=O)c1ccc(NC(=O)CCl)cc1 [M029, 2-Chloro-N-(4-(N-(3-cyanothiophen-2-yl)sulfamoyl)phenyl)acetamide]
IL-2 production / relative IL-2 mRNA level [1]: increased; also recorded: promoted
cytotoxicity, HEK293 [2]: No significant toxicity; also recorded: no significant cytotoxicity
cytotoxicity, Jurkat T cells [3]: No significant toxicity; also recorded: no significant cytotoxicity
cytotoxicity, Raw264.7 [4]: No significant toxicity; also recorded: no significant cytotoxicity
cytotoxicity, B16-F10 [5]: No significant toxicity; also recorded: no significant cytotoxicity
cytotoxicity, MC38 [6]: No significant toxicity; also recorded: no significant cytotoxicity
cytotoxicity, EO771 [7]: No significant toxicity; also recorded: no significant cytotoxicity
LCK, PLCγ, and ERK1/2 phosphorylation in SHP1-deleted cells [8]: abolished; also recorded: unable to alter
